# Changes are numbered by the printed parent chain. Names and notes keep the numbering of the source.
# B1: wild type human DAT (Homo sapiens) (protein)
# chain: MSKSKCSVGLMSSVVAPAKEPNAVGPKEVELILVKEQNGVQLTSSTLTNPRQSPVEAQDRETWGKKIDFLLSVIGFAVDLANVWRFPYLCYKNGGGAFLVPYLLFMVIAGMPLFYMELALGQFNREGAAGVWKICPILKGVGFTVILISLYVGFFYNVIIAWALHYLFSSFTTELPWIHCNNSWNSPNCSDAHPGDSSGDSSGLNDTFGTTPAAEYFERGVLHLHQSHGIDDLGPPRWQLTACLVLVIVLLYFSLWKGVKTSGKVVWITATMPYVVLTALLLRGVTLPGAIDGIRAYLSVDFYRLCEASVWIDAATQVCFSLGVGFGVLIAFSSYNKFTNNCYRDAIVTTSINSLTSFSSGFVVFSFLGYMAQKHSVPIGDVAKDGPGLIFIIYPEAIATLPLSSAWAVVFFIMLLTLGIDSAMGGMESVITGLIDEFQLLHRHRELFTLFIVLATFLLSLFCVTNGGIYVFTLLDHFAAGTSILFGVLIEAIGVAWFYGVGQFSDDIQQMTGQRPSLYWRLCWKLVSPCFLLFVVVVSIVTFRPPHYGAYIFPDWANALGWVIATSSMAMVPIYAAYKFCSLPGSFREKLAYAIAPEKDRELVDRGEVRQFTLRHWLKV
# B2: human DAT S422A (Homo sapiens; S422A) (protein)
# chain: B1 chain with S422A
# B3: human DAT A479V/A480V (Homo sapiens; A479V/A480V) (protein)
# chain: B1 chain with A479V, A480V
# B4: human DAT V152A (Homo sapiens; V152A) (protein)
# chain: B1 chain with V152A
# B5: human DAT V152I (Homo sapiens; V152I) (protein)
# chain: B1 chain with V152I
# B6: human DAT N157A (Homo sapiens; N157A) (protein)
# chain: B1 chain with N157A
# B7: human DAT N157C (Homo sapiens; N157C) (protein)
# chain: B1 chain with N157C
# What was measured:
# [1] = target: T1, human DAT V152A (Homo sapiens, UniProt Q01959, V152A); experiment: [^3H]dopamine uptake in transfected COS7 cells; assay type: cell-based; settings: for decrease in potency in inhibition of [^3H]dopamine uptake versus wild type: V152A vs WT
# [2] = target: T1, human DAT V152A; experiment: [^3H]CFT binding on intact transfected COS7 cells; settings: for reduction in apparent affinity in [^3H]CFT competition binding versus wild type: V152A vs WT
# [3] = target: T2, human DAT V152I (Homo sapiens, UniProt Q01959, V152I); experiment: [^3H]dopamine uptake in transfected COS7 cells; assay type: cell-based; settings: for decrease in potency in inhibition of [^3H]dopamine uptake versus wild type: V152I vs WT
# [4] = target: T2, human DAT V152I; experiment: [^3H]CFT binding on intact transfected COS7 cells; settings: for reduction in apparent affinity in [^3H]CFT competition binding versus wild type: V152I vs WT
# [5] = target: human DAT S422A (Homo sapiens, UniProt Q01959, S422A); experiment: [^3H]dopamine uptake in transfected COS7 cells; assay type: cell-based
# [6] = target: human DAT N157C (Homo sapiens, UniProt Q01959, N157C); experiment: [^3H]dopamine uptake in transfected COS7 cells; assay type: cell-based
# [7] = target: T3, wild type human DAT (Homo sapiens, UniProt Q01959); experiment: [^3H]dopamine uptake in transfected COS7 cells; assay type: cell-based; settings: WT DAT
# [8] = target: human DAT N157A (Homo sapiens, UniProt Q01959, N157A); experiment: [^3H]dopamine uptake in transfected COS7 cells; assay type: cell-based
# [9] = target: T4, human DAT A479V/A480V (Homo sapiens, UniProt Q01959, A479V/A480V); experiment: [^3H]dopamine uptake in transfected COS7 cells; assay type: cell-based
# [10] = target: T4, human DAT A479V/A480V; experiment: [^3H]CFT binding on intact transfected COS7 cells
# [11] = target: T3, wild type human DAT; experiment: [^3H]CFT binding on intact transfected COS7 cells; settings: WT DAT
# [12] = substrate: NCCc1ccc(O)c(O)c1; experiment: cells, lysate or membranes; settings: COS7 cells, 5 min uptake at room temperature, pH 7.4
# T2 sequence (Q01959 whole entry V152I): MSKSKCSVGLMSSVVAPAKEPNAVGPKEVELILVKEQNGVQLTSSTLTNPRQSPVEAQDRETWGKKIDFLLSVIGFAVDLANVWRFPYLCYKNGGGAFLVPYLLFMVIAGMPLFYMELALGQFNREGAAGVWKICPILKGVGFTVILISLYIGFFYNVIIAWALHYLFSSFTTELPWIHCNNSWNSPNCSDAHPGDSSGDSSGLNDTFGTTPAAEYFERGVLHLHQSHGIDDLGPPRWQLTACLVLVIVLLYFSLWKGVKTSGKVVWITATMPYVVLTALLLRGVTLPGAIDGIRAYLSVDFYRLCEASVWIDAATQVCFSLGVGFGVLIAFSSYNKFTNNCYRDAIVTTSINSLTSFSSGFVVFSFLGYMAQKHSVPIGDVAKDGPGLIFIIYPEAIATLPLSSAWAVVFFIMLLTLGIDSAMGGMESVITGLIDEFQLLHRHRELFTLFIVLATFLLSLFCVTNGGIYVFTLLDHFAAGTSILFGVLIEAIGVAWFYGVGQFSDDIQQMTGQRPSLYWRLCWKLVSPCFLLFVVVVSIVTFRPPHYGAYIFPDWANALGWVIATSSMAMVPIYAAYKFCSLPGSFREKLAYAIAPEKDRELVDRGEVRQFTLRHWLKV
# T1 sequence (Q01959 whole entry V152A): as the sequence (Q01959 whole entry V152I) above, with I152A counted along it
# Sequence of human DAT S422A (Q01959 whole entry S422A): as the sequence (Q01959 whole entry V152I) above, with I152V, S422A counted along it
# T4 sequence (Q01959 whole entry A479V/A480V): as the sequence (Q01959 whole entry V152I) above, with I152V, A479V, A480V counted along it
# Sequence of human DAT N157A (Q01959 whole entry N157A): as the sequence (Q01959 whole entry V152I) above, with I152V, N157A counted along it
# Sequence of human DAT N157C (Q01959 whole entry N157C): as the sequence (Q01959 whole entry V152I) above, with I152V, N157C counted along it
molecule,measurement,setting,value
"CN1[C@@H]2CC[C@H]1C[C@@H](OC(c1ccccc1)c1ccccc1)C2 [BZT, benztropine]",decrease in potency in inhibition of [^3H]dopamine uptake versus wild type,[1],~ 3 fold
same,reduction in apparent affinity in [^3H]CFT competition binding versus wild type,[2],~ 15 fold
same,decrease in potency in inhibition of [^3H]dopamine uptake versus wild type,[3],no change
same,reduction in apparent affinity in [^3H]CFT competition binding versus wild type,[4],~ 15 fold
"NCCc1ccc(O)c(O)c1 [[^3H]Dopamine, 3,4-[Ring-2,5,6-^3H]-dihydroxyphenylethylamine]",Vmax ± S.E. of [^3H]dopamine uptake,"[1]; V152A, COS7 cells",614 ± 167 fmol/min/10^5 cells
same,Vmax ± S.E. of [^3H]dopamine uptake,"[3]; V152I, COS7 cells",242 ± 37 fmol/min/10^5 cells
same,increase in Km value for [^3H]dopamine uptake versus wild type,[5]; S422A vs WT,~ 4 fold
same,Vmax ± S.E. of [^3H]dopamine uptake,"[5]; S422A, COS7 cells",320 ± 40 fmol/min/10^5 cells
same,Vmax ± S.E. of [^3H]dopamine uptake,[6],1768 ± 159 fmol/min/10^5 cells
same,Vmax ± S.E. of [^3H]dopamine uptake,[7],5275 ± 555 fmol/min/10^5 cells
same,Vmax ± S.E. of [^3H]dopamine uptake,[8],598 ± 179 fmol/min/10^5 cells
same,Vmax ± S.E. of [^3H]dopamine uptake,[9],2231 ± 157 fmol/min/10^5 cells
"COC(=O)[C@H]1[C@@H](c2ccc(F)cc2)C[C@@H]2CC[C@H]1N2C [CFT, (−)-2β-carbomethoxy-3β-(4-fluorophenyl)tropane]",Bmax ± S.E. of [^3H]CFT binding,[10],310 ± 44 fmol/10^5 cells
same,Bmax ± S.E. of [^3H]CFT binding,"[2]; V152A, intact COS7 cells",380 ± 99 fmol/10^5 cells
same,Bmax ± S.E. of [^3H]CFT binding,[11],386 ± 89 fmol/10^5 cells
same,Bmax ± S.E. of [^3H]CFT binding,"[4]; V152I, intact COS7 cells",215 ± 58 fmol/10^5 cells
CCCCN1[C@@H]2CC[C@H]1CC(OC(c1ccc(F)cc1)c1ccc(F)cc1)C2 (stereo partly drawn) [JHW007],decrease in potency in inhibition of [^3H]dopamine uptake versus wild type,[1],~ 2 fold
same,reduction in apparent affinity in [^3H]CFT competition binding versus wild type,[2],10–20 fold
same,decrease in potency in inhibition of [^3H]dopamine uptake versus wild type,[3],~ 6 fold
same,reduction in apparent affinity in [^3H]CFT competition binding versus wild type,[4],10–20 fold
B1,Km,[12]; other: WT DAT,986 [861–1130] nM
B2,Km,[12]; other: S422A,3950 [3730–4190] nM
B3,Km,[12]; other: A479V/A480V,1620 [1350–1940] nM
B4,Km,[12]; other: V152A,3090 [2310–4130] nM
B5,Km,[12]; other: V152I,4370 [3180–6010] nM
B6,Km,[12]; other: N157A,3240 [2720–3870] nM
B7,Km,[12]; other: N157C,2710 [2170–3380] nM

# From publication PMC3703859 (Neuropharmacology, 2010)
